Reference: PubChem BioAssay AID623929 (Vanderbilt Specialized Chemistry Center, 2012)

Target: Metabotropic glutamate receptor 2 (Rattus norvegicus) (UniProt P31421)
Assay: PubChem AID 623929
Conditions: HEK293 GIRK rat mGlu2, thallium flux fluorescence

Sequence of Metabotropic glutamate receptor 2 (Rattus norvegicus) (P31421 whole entry, looked up): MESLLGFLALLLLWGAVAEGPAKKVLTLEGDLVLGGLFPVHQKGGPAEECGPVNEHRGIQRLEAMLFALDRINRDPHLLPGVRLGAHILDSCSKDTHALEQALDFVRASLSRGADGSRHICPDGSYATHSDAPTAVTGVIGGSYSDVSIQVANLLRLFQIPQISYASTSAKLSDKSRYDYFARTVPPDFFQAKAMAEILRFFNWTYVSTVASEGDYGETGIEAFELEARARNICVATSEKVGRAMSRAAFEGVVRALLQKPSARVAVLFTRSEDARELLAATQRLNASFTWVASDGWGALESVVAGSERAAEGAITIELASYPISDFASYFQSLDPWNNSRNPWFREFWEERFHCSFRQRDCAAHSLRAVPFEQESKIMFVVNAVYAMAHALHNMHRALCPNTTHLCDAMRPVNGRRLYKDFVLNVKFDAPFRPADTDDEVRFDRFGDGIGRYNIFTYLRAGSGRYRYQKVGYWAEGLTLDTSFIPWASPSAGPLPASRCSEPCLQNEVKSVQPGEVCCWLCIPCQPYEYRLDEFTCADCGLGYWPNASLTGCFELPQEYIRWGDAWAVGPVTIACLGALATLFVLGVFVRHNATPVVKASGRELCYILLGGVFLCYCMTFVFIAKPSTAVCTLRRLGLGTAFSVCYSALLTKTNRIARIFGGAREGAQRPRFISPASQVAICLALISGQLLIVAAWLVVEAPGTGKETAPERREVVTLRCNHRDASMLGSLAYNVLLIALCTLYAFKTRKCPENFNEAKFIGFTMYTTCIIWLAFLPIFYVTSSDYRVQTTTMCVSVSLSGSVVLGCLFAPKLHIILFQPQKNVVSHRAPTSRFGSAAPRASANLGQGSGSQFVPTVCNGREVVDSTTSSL

IC50 [µM] | SMILES
10 | COc1ccc(C#Cc2ccc(C(=O)N3CCC[C@@H](CO)C3)cc2)cc1
10 | COc1ccc(C#Cc2ccc(C(=O)N3CCCC(CO)C3)cc2)cc1 (stereo not drawn)
10 | COc1ccc(C#Cc2ccc(C(=O)N3CCC[C@H](CO)C3)cc2)cc1
